Earlier results on six compounds are cited in US10413528B2, “Methods to inhibit infection during wound healing with topical compositions including amino acids” (priority 2014, dated 2019).

SMILES strings stand for the structures.

Conditions in one data set: not given
Turning to `CC(C)C[C@H](N)C(=O)O` [leucine], the “maximum solubility in water” value was 22.4 mg/mL.

The data set is the same for the next values; noted with them: in water.
Regarding `C[C@H](N)C(=O)O` [alanine], the maximum aqueous solubility is 166.5 mg/mL.
As for `NC(=O)CC[C@H](N)C(=O)O` [glutamine], the maximum aqueous solubility was 35 mg/mL.
Take `N[C@@H](Cc1c[nH]cn1)C(=O)O` [histidine]: the maximum aqueous solubility was 41.6 mg/mL.
`CC(C)C[C@H](N)C(=O)O` [leucine]: the maximum aqueous solubility was 22.4 mg/mL.
As for `CSCC[C@H](N)C(=O)O` [methionine], the maximum aqueous solubility is 53.7 mg/mL.
Turning to `CC(C)[C@H](N)C(=O)O` [valine], the maximum aqueous solubility is 85 mg/mL.
